Laboratory results: US12318358B2, “Probenecid for use in treating epileptic diseases, disorders or conditions” (PARIS SCIENCES ET LETTRES—QUARTIER LATIN, priority 2017, dated 2025)

What was measured:
[1] = test system: human epileptic cortical slices; test: Multi-electrode array (MEA) recordings of ictal-like discharges in human epileptic cortical slices in pro-epileptic conditions; format: cell-based
Protocol: The resected cortical block was prepared according to Dossi et al. (J Vis Exp. 2014 Oct. 26; (92):e51870). Briefly, post-surgical tissue was transported in a cold solution containing (in mM) 250 D-sucrose, 25 NaHCO3, 3 KCl, 1 CaCl2, 10 MgCl2 and 10 D-glucose, and oxygenated with carbogen (95% O2 and 5% CO2). Meninges, blood clots and vessels were gently removed and transverse cortical slices (400 μm-thick) were cut with a vibratome (HM650V, Microm Microtech, France). They were maintained at 37° C., equilibrated with 95% 02 and 5% CO2, in an interface chamber, continuously perfused with an artificial cerebro-spinal fluid (ACSF) containing (in mM) 124 NaCl, 3 KCl, 26 NaHCO3, 1.6 CaCl2, 1.3 MgCl2 and 10 D-glucose at 2 ml/min, for at least 1 hour before recording.
Cortical slices were transferred on planar MEA petri dishes (200-30 ITO electrodes, organized in a 12×12 matrix, with internal reference, 30 μm diameter and 200 μm inter-electrode distance; Multichannel Systems, Germany). They were kept in place using a platinum anchor and continuously perfused at a rate of 5-6 ml/min with ACSF.
Pictures of cortical slices on MEAs were acquired with a video microscope table (MEA-VMT1; Multichannel Systems, Germany) through MEA_Monitor software (Multichannel Systems, Germany) to identify the location of the electrodes relatively to the pial surface of the slices. Data were sampled at 10 kHz and the slice activity was recorded at 37° C. by a MEA2100-120 system (bandwidth 1-3000 Hz, gain 5×; Multichannel Systems, Germany) through MC_Rack 4.5.1 software (Multichannel systems, Germany) The activity of the slices was recorded in ACSF containing (in mM) 124 NaCl, 3 KCl, 26 NaHCO3, 1.6 CaCl2, 1.3 MgCl2 and 10 D-glucose (Ct ACSF) and in high potassium, magnesium-free pro-epileptic ACSF containing (in mM) 6 KCl, 0 Mg^2+ (6K 0Mg-ACSF).
To investigate whether probenecid medication could be used as a treatment for epileptic seizures, the electrophysiological activity of human epileptic cortical slices was recorded in pro-epileptic conditions, before and after probenecid administration (1 mM, 30 minutes).

[2] = test system: kainate (KA) mouse model of chronic temporal lobe epilepsy; test: Telemetric EEG recording of spontaneous seizures in kainate (KA) mouse model of chronic temporal lobe epilepsy; format: in vivo, C57BL/6j male mice; settings: for Seizure duration / Seizure frequency: 200 mg/kg i.p. single injection, n = 5
Protocol: Six weeks old C57BL/6j male mice were injected unilaterally with kainate (KA; 0.05 μl, 20 mM in saline) at a rate of 0.5 μl/min in the CA1 area of the right hippocampus (−2 mm anteroposterior, +1.5 mm lateral, −1.4 mm dorso-ventral) by mean of a stereotaxic apparatus and a cannula (0.29 mm diameter) connected to a precision pump. Mice were then left 3 weeks for settling of the chronic epileptic phenotype.
EEG experiments were carried out using wireless ETA-F 10 transmitters (DataSciences International, USA) for chronic EEG recording and video monitoring 3 weeks after KA injection. After anesthesia (ketamine, 95 mg/kg; xylazine, 10 mg/kg; i.p.), a 1 cm midline sagittal incision was made starting above the skull midline and extending along the neck to create a pocket for subcutaneous placement of the transmitter along the dorsal flank of the animal. The recording flexible electrodes (stereotaxic coordinates: −2 mm anteroposterior, +1.5 mm and −1.5 mm lateral) were implanted subdurally through small holes drilled in the skull and held in place with dental cement. Mice were implanted with wireless ETA-F10 transmitters 2 weeks after the KA injection and were allowed to recover for 7 days before recording.
EEG signal was collected through DSI radiofrequency receivers placed under each cage. EEG data were acquired at a sampling rate of 200 Hz using the DSI Dataquest A.R.T. system (version 4.33). To assess therapeutic potential of probenecid, KA mice were recorded with ETA-F10 DSI EEG electrodes for 48 h in their home cage, injected with probenecid (200 mg/kg in corn oil, Sigma-Aldrich; i.p.) and recorded for 24 hours post-treatment. Analysis of seizures was performed using the NeuroScore software (Data Sciences International, USA); seizures were detected on the EEG as spike trains with a minimal amplitude of 1.5× baseline and a minimal duration of 5 s at a frequency ≥1 Hz (Bergstrom et al., Sci Rep. 2013; 3:1483. doi: 10.1038/srep01483). Artifacts were automatically detected using a high detection threshold and removed manually.
To further assess the therapeutic potential of probenecid, we tested the in vivo effect of probenecid i.p. in a kainate (KA) mouse model of chronic temporal lobe epilepsy. To do so, electroencephalogram (EEG) of KA mice were recorded before (48 hours) and after (24 hours) probenecid administration (200 mg/kg) (FIG. 1C).

[3] = probenecid 1 mM, 30 minutes, pro-epileptic ACSF (6K 0Mg), n = 6 slices
[4] = 20-24 hours post-treatment, single injection 200 mg/kg i.p.

CCCN(CCC)S(=O)(=O)c1ccc(C(=O)O)cc1 [Probenecid, 4-(dipropylsulfamoyl)benzoic acid]
Effect on IDs (FIG. 1A example recording) ([1]; PBN 1 mM, 30 min, PIDs do not disappear): disappear
human cortical slices in which ictal-like discharges (IDs) were fully inhibited ([1]; probenecid 1 mM, 30 minutes): 5 out of 6
ID duration [1, 3]: 7.59 ± 7.59 s
ID frequency [1, 3]: 0.03 ± 0.03 IDs/min
ID duration in the remaining slice ([1]; probenecid 1 mM, 30 minutes, the one slice not fully inhibited): halved
Seizure duration ([2]; 4-8 h post-treatment): no seizure detected
Seizure frequency ([2]; 4-8 h post-treatment): no seizure detected
Effect on spontaneous seizures ([2]; 4 to 8 hours post-treatment, single injection 200 mg/kg i.p., in all mice tested): completely blocked
Duration of reappeared seizures versus pre-treatment [2, 4]: significantly shorter duration
Mice in which seizures reappeared [2, 4]: 2 of 5
Seizure duration ([2]; 20-24 h post-treatment): 3.6 ± 2.25 s
Seizure frequency ([2]; 20-24 h post-treatment): 1.2 ± 0.97 seizure/4 h
